{"source": "patent US20140154332A1", "about": "“FORMULAS COMPRISING HIGHLY SOLUBLE ELEMENTS AND VITAMIN FOR THE PREVENTION AND AMELIORATION OF OSTEOPOROSIS” (SINOVEDA CANADA, INC., priority 2011, published 2014)", "key": {"[1]": {"conditions": "humans; cited from earlier work"}, "[2]": {"conditions": "dual isotope techniques; cited from earlier work"}, "[3]": {"experiment": "Calcium, magnesium and zinc balance study in rats receiving normal diet (cumulative net percentage, body weight, plasma levels)", "conditions": "for Body weight of rats: normal calcium diet, n = 5; for Cumulative net percentage of calcium / Cumulative net percentage of zinc / Net accumulative percentage of magnesium: normal diet, n = 5 per group", "excerpt": "(§1) Male Sprague-Dawley rats (about 6-7 weeks), with an initial weight between 220 g to 250 g, were randomly divided into different treatment groups. All the rats were housed in individual metabolic cages in a temperature-controlled room. Each rat received free access to the normal diet (Table 34) before the experiment. Both normal and calcium free diets (Table 34) were used in this set of studies. De-ionized water was provided ad libitum. All the rats were weighed before treatment.\n(§2) Two sets of studies were performed: a normal diet and calcium free diet. In each study, there were seven treatment groups. […] Rats participating in the normal diet study received normal diet ad libitum throughout. Rats participating in the group of calcium free diet received the calcium free food ad libitum starting five days before and throughout treatment. In both study groups, animals received one dose a day for five days. Amounts of calcium, magnesium and zinc in individual formulation and in each diet were determined using ICP-OES. Values of dosage and dietary intake were measured for the calculation of elemental balance. […] Daily elemental dosages, similar to that of human's, are 53.14 mg/kg for calcium, 0.38 to 55 mg/kg/day for magnesium and 0.017 to 2.5 mg/kg/day for zinc. […] The vehicle for preparing each dose was de-ionized water. The concentration of calcium in all dosage preparations was 15.94 mg/mL. One mL of each preparation was administered by gavage. Body weight, elemental dosage and diet consumption were recorded daily.\n(§3) Animals were housed individually in a metabolic cage five days before the study. Food consumption was evaluated daily. Urine and feces were collected daily for four days and the content of calcium, magnesium and zinc was determined. On Day 5, each animal received its treatment. These treatments were administered once a day for four days. After the last treatment, each animal was anesthetized shortly before peak elemental blood concentration was achieved. Blood was collected using a heparinized syringe via cardiac puncture. Immediately after blood collection, the animal was then sacrificed with an overdose of isoflourane. Each blood sample was centrifuged at 1900 rpm at room temperature; plasma was harvested and stored at −20° C. until analysis. Urine was measured daily; it was diluted with de-ionized water, filtered and an aliquot was stored at −20° C. until analysis. Daily fecal output was collected and lyophilized. Each sample was weighed and digested using a mixture of three volume of nitric acid and one volume of perchloric acid. For every gram of dried feces, 10 mL of acid mixture was added. Each sample was digested for three days. The volume of the digested sample was measured and an aliquot of the digest was stored at −20° C. until analysis. The content of calcium, magnesium and zinc in plasma, feces and urine were determined using ICP-OES.\n(§4) Daily calcium balance was calculated using equation 1:\n(§5) Ca Balance=total Ca intake(dose and dietary intake)−Ca excreted in urine−Ca excreted in feces (1)\n(§6) While, percentage of Ca balance was determined using equation 2:\n(§7) % Ca balance=Ca balance/(total Ca intake)×100% (2)\n(§8) Cumulated calcium balance and % cumulated net calcium balance were calculated using equations (1) and (2), except, the sum of daily intake and excretion was used for calculation. The balance for magnesium and zinc was also calculated using the concept of equations (1) and (2). Cumulated elemental balance and % cumulated net elemental balance were calculated in a similar fashion as described above.\n(§9) All results were analyzed using two-way ANOVA. […] The data are presented as mean±S.D. and mean±S.E.M. in tables and figures, respectively."}, "[4]": {"conditions": "25 mg calcium load, 45Ca; cited from earlier work"}, "[5]": {"experiment": "Calcium, magnesium and zinc balance study in rats receiving calcium free diet (cumulative net percentage, body weight, plasma levels)", "conditions": "for Cumulative net percentage of calcium / Cumulative net percentage of magnesium / Cumulative net percentage of zinc: n = 5 per group", "excerpt": "as §1, §2, §3, §4, §5, §6, §7, §8, §9"}, "[6]": {"conditions": "rats; cited from earlier work"}}, "data": [{"compound": "O=C([O-])[O-].[Ca+2]", "note": "[calcium carbonate]", "values": [{"measurement": "average amount absorbed", "setting": "[1]", "result": 24, "unit": "%"}]}, {"compound": "[O]=[Zn]", "note": "[zinc oxide]", "values": [{"measurement": "bioavailability of zinc", "setting": "[2]", "result": "approximately 24%"}]}, {"compound": "Calcium Acetate [Ca ACE]", "values": [{"measurement": "Body weight of rats", "setting": "[3]; Day 1, mean ± S.D.", "result": "242.0 ± 7.4", "unit": "g"}, {"measurement": "Body weight of rats", "setting": "[3]; Day 2, mean ± S.D.", "result": "237.0 ± 12.5", "unit": "g"}, {"measurement": "Body weight of rats", "setting": "[3]; Day 3, mean ± S.D.", "result": "239.2 ± 13.9", "unit": "g"}, {"measurement": "Body weight of rats", "setting": "[3]; Day 4, mean ± S.D.", "result": "238.6 ± 13.9", "unit": "g"}, {"measurement": "Body weight of rats", "setting": "[3]; Day 5, mean ± S.D.", "result": "244.0 ± 12.8", "unit": "g"}, {"measurement": "Cumulative net percentage of calcium", "setting": "[3]; Day 1, mean ± S.D.", "result": "14.4 ± 24.0", "unit": "%"}, {"measurement": "Cumulative net percentage of zinc", "setting": "[3]; Day 1, mean ± S.D.", "result": "27.5 ± 16.0^%"}, {"measurement": "Net accumulative percentage of magnesium", "setting": "[3]; Day 1, mean ± S.D.", "result": "16.7 ± 17.2^%"}, {"measurement": "Cumulative net percentage of calcium", "setting": "[3]; Day 2, mean ± S.D.", "result": "26.9 ± 9.0", "unit": "%"}, {"measurement": "Cumulative net percentage of zinc", "setting": "[3]; Day 2, mean ± S.D.", "result": "40.9 ± 7.3", "unit": "%"}, {"measurement": "Net accumulative percentage of magnesium", "setting": "[3]; Day 2, mean ± S.D.", "result": "29.9 ± 3.8", "unit": "%"}, {"measurement": "Cumulative net percentage of calcium", "setting": "[3]; Day 3, mean ± S.D.", "result": "30.3 ± 4.9", "unit": "%"}, {"measurement": "Cumulative net percentage of zinc", "setting": "[3]; Day 3, mean ± S.D.", "result": "45.6 ± 5.9", "unit": "%"}, {"measurement": "Net accumulative percentage of magnesium", "setting": "[3]; Day 3, mean ± S.D.", "result": "34.3 ± 2.5", "unit": "%"}, {"measurement": "Cumulative net percentage of calcium", "setting": "[3]; Day 4, mean ± S.D.", "result": "31.9 ± 3.0", "unit": "%"}, {"measurement": "Cumulative net percentage of zinc", "setting": "[3]; Day 4, mean ± S.D.", "result": "48.4 ± 4.4", "unit": "%"}, {"measurement": "Net accumulative percentage of magnesium", "setting": "[3]; Day 4, mean ± S.D.", "result": "37.7 ± 2.7", "unit": "%"}, {"measurement": "Bioavailability of calcium", "setting": "[4]", "result": 45, "unit": "%"}, {"measurement": "Cumulative net percentage of calcium", "setting": "[5]; Day 1, mean ± S.D.", "result": "−30.6 ± 51.3", "unit": "%"}, {"measurement": "Cumulative net percentage of magnesium", "setting": "[5]; Day 1, mean ± S.D.", "result": "−197.2 ± 105.2", "unit": "%"}, {"measurement": "Cumulative net percentage of zinc", "setting": "[5]; Day 1, mean ± S.D.", "result": "−107.1 ± 85.5", "unit": "%"}, {"measurement": "Body weight of rats", "setting": "[5]; Day 1, n = 5", "result": "202.4 ± 9.3", "unit": "g"}, {"measurement": "Cumulative net percentage of calcium", "setting": "[5]; Day 2, mean ± S.D.", "result": "−9.88 ± 26.5", "unit": "%"}, {"measurement": "Cumulative net percentage of magnesium", "setting": "[5]; Day 2, mean ± S.D.", "result": "−150.4 ± 88.9", "unit": "%"}, {"measurement": "Cumulative net percentage of zinc", "setting": "[5]; Day 2, mean ± S.D.", "result": "−77.7 ± 59.0", "unit": "%"}, {"measurement": "Body weight of rats", "setting": "[5]; Day 2, n = 5", "result": "194.8 ± 9.3^$ g"}, {"measurement": "Cumulative net percentage of calcium", "setting": "[5]; Day 3, mean ± S.D.", "result": "4.88 ± 24.0", "unit": "%"}, {"measurement": "Cumulative net percentage of magnesium", "setting": "[5]; Day 3, mean ± S.D.", "result": "−115.3 ± 62.7", "unit": "%"}, {"measurement": "Cumulative net percentage of zinc", "setting": "[5]; Day 3, mean ± S.D.", "result": "−65.7 ± 66.7", "unit": "%"}, {"measurement": "Body weight of rats", "setting": "[5]; Day 3, n = 5", "result": "196.8 ± 10.9", "unit": "g"}, {"measurement": "Cumulative net percentage of calcium", "setting": "[5]; Day 4, mean ± S.D.", "result": "11.1 ± 20.0", "unit": "%"}, {"measurement": "Cumulative net percentage of magnesium", "setting": "[5]; Day 4, mean ± S.D.", "result": "−93.6 ± 37.2", "unit": "%"}, {"measurement": "Cumulative net percentage of zinc", "setting": "[5]; Day 4, mean ± S.D.", "result": "−50.5 ± 46.4", "unit": "%"}, {"measurement": "Body weight of rats", "setting": "[5]; Day 4, n = 5", "result": "193.4 ± 11.9^$ g"}, {"measurement": "Body weight of rats", "setting": "[5]; Day 5, n = 5", "result": "188.0 ± 12.2^$ g"}, {"measurement": "magnesium balance", "setting": "[5]; rats", "result": "net loss of magnesium"}]}, {"compound": "Magnesium gluconate", "values": [{"measurement": "bioavailability of magnesium", "setting": "[6]", "result": "highest value"}]}, {"compound": "calcium ascorbate", "values": [{"measurement": "Bioavailability of calcium", "setting": "[4]", "result": 70, "unit": "%"}]}]}
